The target of this assay is T1, Haem-free sGC (Rattus norvegicus, UniProt P20595).
T1 construct: made in house; host or cells: Sf9 insect cells (baculovirus)
Nature of the assay: Stimulation of recombinant soluble guanylate cyclase (sGC) in vitro, haem-free enzyme. The format is biochemical. The method, then: Investigations on the stimulation of recombinant soluble guanylate cyclase (sGC) by the compounds according to the invention with and without sodium nitroprusside, and with and without the haem-dependent sGC inhibitor 1H-1,2,4-oxadiazolo[4,3a]quinoxalin-1-one (ODQ), are carried out by the method described in detail in the following reference: M. Hoenicka, E. M. Becker, H. Apeler, T. Sirichoke, H. Schroeder, R. Gerzer and J.-P. Stasch, “Purified soluble guanylyl cyclase expressed in a baculovirus/Sf9 system: Stimulation by YC-1, nitric oxide, and carbon oxide”, J. Mol. Med. 77 (1999), 14-23. The haem-free guanylate cyclase is obtained by adding Tween 20 to the sample buffer (0.5% in the final concentration).
The activation of sGC by a test substance is reported as x-fold stimulation of the basal activity.

T1 sequence (P19686 whole entry partner): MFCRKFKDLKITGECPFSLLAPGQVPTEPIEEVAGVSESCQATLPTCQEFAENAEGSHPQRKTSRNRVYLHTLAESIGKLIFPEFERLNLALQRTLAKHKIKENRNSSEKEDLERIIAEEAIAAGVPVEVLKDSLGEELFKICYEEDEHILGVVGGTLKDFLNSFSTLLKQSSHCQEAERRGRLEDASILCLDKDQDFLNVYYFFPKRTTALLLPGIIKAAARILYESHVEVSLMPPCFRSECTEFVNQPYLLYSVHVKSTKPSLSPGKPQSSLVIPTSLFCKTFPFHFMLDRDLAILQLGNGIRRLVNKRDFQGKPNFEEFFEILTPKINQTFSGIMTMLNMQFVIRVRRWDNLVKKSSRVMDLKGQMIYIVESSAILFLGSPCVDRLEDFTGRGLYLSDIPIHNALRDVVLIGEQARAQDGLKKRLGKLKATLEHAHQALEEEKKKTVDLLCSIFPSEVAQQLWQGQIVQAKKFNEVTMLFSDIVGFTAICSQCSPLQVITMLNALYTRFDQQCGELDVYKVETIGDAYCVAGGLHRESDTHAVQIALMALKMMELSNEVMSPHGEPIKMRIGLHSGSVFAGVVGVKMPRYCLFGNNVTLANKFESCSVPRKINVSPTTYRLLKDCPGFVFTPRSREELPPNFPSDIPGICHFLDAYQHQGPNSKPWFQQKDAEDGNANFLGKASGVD
T1 sequence (P20595 whole entry): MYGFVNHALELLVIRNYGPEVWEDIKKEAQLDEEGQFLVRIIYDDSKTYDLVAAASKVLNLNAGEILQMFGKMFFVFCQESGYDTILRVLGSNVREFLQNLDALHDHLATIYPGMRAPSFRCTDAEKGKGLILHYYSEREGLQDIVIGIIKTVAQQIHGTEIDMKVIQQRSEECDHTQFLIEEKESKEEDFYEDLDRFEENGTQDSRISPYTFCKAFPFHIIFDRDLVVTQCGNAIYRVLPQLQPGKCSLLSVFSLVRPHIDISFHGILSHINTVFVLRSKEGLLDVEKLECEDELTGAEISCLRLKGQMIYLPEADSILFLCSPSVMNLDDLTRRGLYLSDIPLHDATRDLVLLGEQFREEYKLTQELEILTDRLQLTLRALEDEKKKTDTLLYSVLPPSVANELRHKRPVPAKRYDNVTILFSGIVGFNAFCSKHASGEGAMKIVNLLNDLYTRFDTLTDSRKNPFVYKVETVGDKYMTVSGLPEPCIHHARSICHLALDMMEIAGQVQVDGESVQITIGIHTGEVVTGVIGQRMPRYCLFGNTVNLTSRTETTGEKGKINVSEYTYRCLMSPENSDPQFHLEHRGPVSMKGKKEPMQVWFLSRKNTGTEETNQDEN

Turning to `[2H]C([2H])([2H])OC(c1ccc(Cl)c(NC(=O)[C@H](c2ccc(Cl)cc2)[C@@H](C)C(F)(F)F)c1)C1(C(=O)O)CC1` (single isomer, unassigned; (+)) [Example 99], the “Stimulation (x-fold) of recombinant sGC, Basal” value (“Stimulation (x-fold)” for short) (test substance 0.01 μM) is recorded as 2.0 ± 0.4 x-fold; the “Stimulation (x-fold)” value (test substance 0.1 μM) is 5.2 ± 0.8 x-fold; the “Stimulation (x-fold)” value (test substance 1.0 μM) turned out to be 14.9 ± 2.2 x-fold; the “Stimulation (x-fold)” value (test substance 10 μM) was determined as 19.4 ± 2.8 x-fold.

Consider `C[C@H]([C@H](C(=O)Nc1cc(CC2(C(=O)O)CC2)ccc1Cl)c1ccc(Cl)cc1)C(F)(F)F` [Example 50, (+)-1-(4-Chloro-3-{[(2S,3R)-2-(4-chlorophenyl)-4,4,4-trifluoro-3-methylbutanoyl]amino}benzyl)-cyclopropanecarboxylic acid], for which the “Stimulation (x-fold)” value by setting is: (test substance 0.01 μM) 2.6 ± 0.8 x-fold; (test substance 0.1 μM) 7.1 ± 2.4 x-fold; (test substance 1.0 μM) 27.2 ± 7.4 x-fold; (test substance 10 μM) 41.2 ± 9.8 x-fold; (test substance 100 μM) 39.0 ± 9.1 x-fold.

Source of the values: US9018258B2, “Substituted 1-benzylcycloalkylcarboxylic acids and the use thereof” (Bayer Intellectual Property GmbH, priority 2010, dated 2015).
